Results on 12 compounds are retold here after US11643655B2, “Methods for intracellular delivery and enhanced gene targeting” (CITY OF HOPE, priority 2016, dated 2023).

Data set [1] deals with HeLa EGFP-654 cells. Nature of the data set: SSO-654-mediated EGFP expression (splice switching) in HeLa EGFP-654 cells; flow cytometry, Western blot, microscopy. Format: cell-based, human. For orientation: Flow cytometry measures light scatter and fluorescence of single cells or particles in a stream.
The conditions of data set [2]: cited from earlier work.
Data set [3] has as its system PKR. Nature of the data set: PKR expression by real-time PCR (cellular stress response) in HeLa-GFP-654 cells. Format: cell-based, human. A general note: Real-time PCR tracks product formation cycle by cycle.
The subject of data set [4] is β-catenin. It is filed as cell-based, human.
The test system of data set [5] is HeLa-EGFP-654 and LNCaP cells. Format: cell-based, human.
In data set [6] the test system is HeLa EGFP-654 cells. Kind of data set: Cell growth and proliferation, SRB staining. The conditions noted are these: two days. (In general: In SRB staining, fixed cells bind dye roughly in proportion to their protein.)
The conditions of data set [7]: oligonucleotides delivered by gymnosis; cited from earlier work.
The conditions of data set [8]: cited from earlier work. This is another data set of the same source.
Data set [9] deals with androgen receptor (AR). Kind of data set: ASO silencing of AR protein expression, Western blot. It is filed as cell-based, human. Conditions: LNCaP cells; for reduction in AR protein expression: three days. As for the experimental part:
Cells were harvested with trypsin digestion and washed once with PBS. Cell pellets were lysed in cold RIPA buffer containing protease inhibitors. Cellular RIPA lysates were sonicated for 2 seconds and then rested on ice for 5 min. Cell debris was removed by centrifugation at 12,000×g for 10 min at 4° C. Protein concentrations were determined using the Pierces BCA Protein Assay kit (Thermo Fisher Scientific, Waltham, Mass.). Aliquots of cell extracts containing 30-40 μg of protein were resolved by SDS-PAGE gel electrophoresis, and then transferred to PVDF membranes. After treatment with the appropriate primary and secondary antibodies, enhanced chemiluminescence was performed. Protein signals on the blot were quantified with the Image J program and protein expression was normalized to control=100%.
Protein expression was quantified with ImageJ.

Data set [10] concerns AR mRNA. Nature of the data set: AR mRNA RT-PCR in LNCaP cells. The conditions noted are these: 1 μM AR-ASO with 5 mM NH4^+, 24 hr, p<0.01. It is filed as cell-based, human. The protocol:
Values were normalized to GAPDH mRNA expression and expressed as the mean±SD, n=3. **p<0.01, Students t-test.
RNA was extracted from cells using RNA-STAT 60 (AMS Biotechnology, Abingdon, UK) as recommended by the manufacturer. First-strand cDNA was synthesized with the Super-Script® III First-Strand Synthesis System Kit (Invitrogen, Carlsbad, Calif.). PCR was performed with Power SYBR GREEN PCR Master Mix (Thermo Fisher Scientific, Waltham, Mass.).

In data set [11] the test system is BCL-2. It is filed as cell-based, human.
Data set [12] relates to CDR1. Format: cell-based, human.
Data set [13] has as its system Malat-1. Format: cell-based, human.
In data set [14] the test system is HDAC-2 mRNA. It is filed as cell-based, human.
For data set [15], the system named is eGFP mRNA. Format: cell-based, human.
For data set [16], the system named is HeLa EGFP-654 cells.

“And” between values parts separate entries of the source, which are not always exact repeats. Equal values may be shown once. “Also recorded” adds a separate entry of the source. Read-outs that look alike come from different tables or passages of the source. l = locked nucleic acid (LNA); d = 2'-deoxy (DNA)

For the compound `O=C1Nc2cc(Br)ccc2/C1=C1/Nc2ccccc2/C1=N\O` [6BIO], in data set [1], the “frequency of splice switching (correctly spliced eGFP expression)” value (“frequency of splice switching” below) is given as “increased frequency of splice switching”.

In the case of `Nc1c(Br)cc(Br)cc1CN[C@H]1CC[C@H](O)CC1` [Ambroxol], the “SSO-654 activity (EGFP MFI)” value in [1] is reported as “significantly enhanced SSO-654 activity”. The pKa (in general, the pH at which an ionisable group is half protonated) in [2] is reported as 9.1.

`OO` [H2O2, hydrogen peroxide]: in data set [1], the “frequency of splice switching” value is given as “increased frequency of splice switching” and the “oligonucleotide (SSO) function, flow cytometry” value is given as “able to increase oligonucleotide function”. In addition, in data set [3] (oligonucleotide (SSO) combined with the treatment), the “PKR activation / expression” value is “increasing PKR expression”.

Consider `Cl.N` [NH4^+, Ammonium chloride], for which, in data set [1], the “activity of lipofected SSO-654 (EGFP MFI)” value was “did not enhance the activity of the SSO-654”; the “increase of SSO-654-induced EGFP protein expression” value is listed as “more than two-fold”; the “increase of SSO-654 function and EGFP expression compared to SSO-654 alone” value was “a minimum of five fold”; the “increase of percentage of EGFP positive cells and EGFP protein expression compared to SSO-654 alone” value is listed as “nearly seven-fold”. Also, in data set [1], the “increase of percentage of EGFP-positive cells, NH4^+/SSO-654 vs SSO-654” value is given as “nearly four-fold”; the “oligonucleotide (SSO) function, flow cytometry” value is recorded as “able to increase oligonucleotide function”; the “upregulation of SSO-654-mediated EGFP expression” value is given as “three- to five-fold”. Moreover, the “increase of β-Cat-ASO efficacy” value in data set [4] is recorded as “approximately two fold”. Moreover, the “cellular uptake of Cy5-ASO (Cy5 MFI)” value in data set [5] is “did not significantly affect the cellular uptake”. Moreover, the “PKR activation / expression” value in data set [3] is recorded as “does not seem to activate the stress gene response”. Moreover, in data set [6] (NH4^+ alone 1 mM-2 mM), the “effect on cell growth” value was “did not affect the growth”. Moreover, the “inhibition of cell growth” value in data set [6] (NH4^+ alone 5 mM, normalized to non-treated controls) was “about 15%”.

As to `CCC(=O)N1CC(=O)Nc2ccc(Br)cc2C1c1ccccc1` (stereo not drawn) [Retro-1], in data set [7], the “optimal concentration for enhancing SSO and ASO efficacy” value was 50 to 100 µM. For the same compound, in [8], the water solubility entry is reported as “poorly water-soluble”.

Regarding `CC(=O)O.N` [ammonium acetate], the “effect on SSO-654-mediated EGFP expression compared with NH4^+” value in [1] was “comparable effects”.

On to `NC1CCCCC1` [cyclohexylamine], for which, in data set [1], the “SSO-654 activity (EGFP MFI)” value is given as “significantly enhanced SSO-654 activity”.

For the compound `CCCCCCCC/C=C\CCCCCCCC(=O)O` [oleic acid], in [1], the “SSO-654 activity (EGFP MFI)” value was “significantly enhanced SSO-654 activity”.

Consider “AR-ASO: Phosphorothioate LNA gapmer ASO targeting Androgen Receptor, 5′-ACCaagtttcttcAGC-3′ (SEQ ID NO: 6) (antisense ACCAAGTTTCTTCAGC; sugars from the 5' end l3 d10 l3, all phosphorothioate, methylation of C not given here)”, for which the “inhibition of NH4^+ and SSO-654-mediated EGFP expression by a second ASO” value in data set [1] was “only slight or no inhibition”. Further, the “AR reduction, dose response” value in data set [9] (0.25 μM AR-ASO with 5 mM NH4^+ vs 1 μM AR-ASO alone) is “greater AR reduction than 1 μM AR-ASO alone”. Also, the “reduction in AR protein expression” value was 40% in data set [9] (1 μM AR-ASO alone) and 80% in [9] (1 μM AR-ASO with 5 mM NH4^+). The “reduction of AR mRNA expression compared with the AR-ASO alone” value in [10] is recorded as “about 40%”.

Consider “BCL2-ASO: Phosphorothioate LNA gapmer ASO targeting BCL-2, 5′-^mCTcccagcgtgcg^mC^mCa-3′ (SEQ ID NO: 3)”, for which, in [1], the “effect of BCL2-ASO on SSO-654 activity and EGFP expression” value is listed as “diminished”; the “effect of BCL2-ASO on SSO-654 function” value was “did not affect SSO-654 function”. In addition, in data set [11], the “BCL2 silencing (BCL-2 protein expression)” value is listed as 65%; the BCL-2 protein expression result is “nearly completely depleted BCL-2 protein expression; also recorded: Some silencing of the BCL-2 protein expression”; the “depletion of BCL-2 protein expression” value was 98% and 70%.

Consider arsenic trioxide [As III], for which, in data set [1], the “frequency of splice switching” value is reported as “increased frequency of splice switching” and the “upregulation of SSO-654-mediated EGFP expression” value is recorded as “three- to five-fold”. Besides, the “BCL2-ASO activity (BCL-2 protein)” value in data set [11] was “did not significantly increase”. In data set [4], the “β-Cat-ASO activity (β-catenin protein)” value is given as “did not significantly increase”. Further, the “oligonucleotide uptake (Cy5-ON by gymnosis)” value in data set [5] is reported as “No significant changes”. The “PKR activation / expression” value in [3] was “PKR is activated”. For the same compound, in data set [12], the CDR-1 gene expression entry is given as “silenced as a function of increasing As III concentrations”. In addition, in data set [13], the Malat-1 gene expression result is “silenced as a function of increasing As III concentrations”. For the same compound, in data set [14], the “expression of HDAC-2 mRNA” value is on record as “did not significantly change”. Also, the “cytoplasmic oligonucleotide function (eGFP mRNA silencing by ON-eGFP)” value in [15] is “some loss of oligonucleotide function”. In addition, the cell viability result in data set [16] was “No significant changes”.

Take “β-Cat-ASO: Phosphorothioate LNA gapmer ASO targeting β-catenin, 5′-CCAtcttgtgatcCAT-3′ (SEQ ID NO: 5) (antisense CCATCTTGTGATCCAT; sugars from the 5' end l3 d10 l3, all phosphorothioate, methylation of C not given here)”: the β-catenin gene expression entry in data set [4] is “nearly eliminated β-catenin gene expression”.
